Data: US10525073B2, “Method for improving kidney and/or heart function in patients with kidney disease” (MacKay Memorial Hospital, priority 2015, dated 2020)

What was measured:
CKD rats [1] = assay: Blood urine nitrogen (BUN) and serum creatine (CR) levels in 5/6 nephrectomy CKD rats; assay type: in vivo, Sprague Dawley rats; conditions: 5/6 nephrectomy rats
Protocol: Sprague Dawley rats (7 weeks old) were kept in pathogen-free environment under 12:12 light-dark cycle with food and water provided ad libitum, ambient temperature and relative humidity were respectively set at 24±2° C. and 50±20%. All procedures involving animal studies of the present disclosure comply with the “Guideline for the Care and Use of Laboratory Animals” issued by The Chinese-Taipei Society of Laboratory Animal Sciences. SD rats (about 10 weeks old) scheduled to undergo 5/6 nephrectomy or sham surgery were anesthetized by Zoletil 50/Xylazine (6 mg/1.3 mg/Kg, i.p.). Then, the left kidney was exposed, and the upper and lower poles were tied with a suture line, followed by right nephrectomy. The peritoneum and skin were then sutured, and the animals were returned to their individual cages. For animals underwent sham surgery, the left kidney was exposed in similar manner, but was then placed back into the abdominal cavity without further treatment, peritoneum and skin were then sutured. Two weeks after sham or 5/6 nephrectomy surgery, the animals were subjected to a 24-hour urine collection and non-invasive tail blood pressure measurement every 4 weeks. Four weeks after the surgery, rats underwent 5/6 nephrectomy or shame surgery were randomly assigned into two groups, i.e., the control and the telbivudine groups, in which the control group received saline treatment, and rats in the telbivudine group received telbivudine (10 mg/mL/Kg) treatment for 8 or 12 weeks. Animals were then sacrificed, and kidney and heart biopsy samples were obtained. In this example, to evaluate the therapeutic function of telbivudine, animals were first subject to 5/6 nephrectomy to induce in vivo kidney failure before being treated with telbivudine. 5/6 nephrectomy is a procedure in which one kidney of a test animal is removed and 2/3 of the remaining kidney is ablated, thereby mimics the progressive renal failure after loss of renal mass in humans. Briefly, approximately 50% of the remaining kidney of the rat was removed by polar excision 1-2 weeks after uni-nephrectomy. Then, the animals were randomly assigned to two groups, the telbivudine group and the control group. […] Blood and urine samples were respectively collected on designated days and analyzed for the levels of blood urine nitrogen (BUN), serum creatine (CR), and hepatic enzymes (i.e., alanine aminotransferase (ALT) and aspartate aminotransferase (AST)). Heart function was determined by monitoring the changes in diastolic parameter-Tissue Velocity Imaging ([…] ratio, and the strain in cardia muscle (C_strain), left ventrical mass ([…]). Animals were sacrificed after the experiments were finished, and kidney biopsy samples were obtained.

CKD rats [2] = assay: Kidney fibrosis in kidney samples of CKD rats; assay type: in vivo, Sprague Dawley rats
Protocol: Sprague Dawley rats (7 weeks old) were kept in pathogen-free environment under 12:12 light-dark cycle with food and water provided ad libitum, ambient temperature and relative humidity were respectively set at 24±2° C. and 50±20%. All procedures involving animal studies of the present disclosure comply with the “Guideline for the Care and Use of Laboratory Animals” issued by The Chinese-Taipei Society of Laboratory Animal Sciences. SD rats (about 10 weeks old) scheduled to undergo 5/6 nephrectomy or sham surgery were anesthetized by Zoletil 50/Xylazine (6 mg/1.3 mg/Kg, i.p.). Then, the left kidney was exposed, and the upper and lower poles were tied with a suture line, followed by right nephrectomy. The peritoneum and skin were then sutured, and the animals were returned to their individual cages. For animals underwent sham surgery, the left kidney was exposed in similar manner, but was then placed back into the abdominal cavity without further treatment, peritoneum and skin were then sutured. Two weeks after sham or 5/6 nephrectomy surgery, the animals were subjected to a 24-hour urine collection and non-invasive tail blood pressure measurement every 4 weeks. Four weeks after the surgery, rats underwent 5/6 nephrectomy or shame surgery were randomly assigned into two groups, i.e., the control and the telbivudine groups, in which the control group received saline treatment, and rats in the telbivudine group received telbivudine (10 mg/mL/Kg) treatment for 8 or 12 weeks. […] Blood and urine samples were respectively collected on designated days and analyzed for the levels of blood urine nitrogen (BUN), serum creatine (CR), and hepatic enzymes (i.e., alanine aminotransferase (ALT) and aspartate aminotransferase (AST)). Heart function was determined by monitoring the changes in diastolic parameter-Tissue Velocity Imaging ([…] ratio, and the strain in cardia muscle (C_strain), left ventrical mass ([…]). Animals were sacrificed after the experiments were finished, and kidney biopsy samples were obtained.

[3] = tested on: IL-6, TGF-β, TIMP1 and COL-1-A1 in kidney tissue of CKD rats; assay: Quantitative RT-PCR of inflammatory genes in kidney tissue of CKD rats; assay type: in vivo, Sprague Dawley rats
Protocol: (§1) SD rats (about 10 weeks old) scheduled to undergo 5/6 nephrectomy or sham surgery were anesthetized by Zoletil 50/Xylazine (6 mg/1.3 mg/Kg, i.p.). Then, the left kidney was exposed, and the upper and lower poles were tied with a suture line, followed by right nephrectomy. The peritoneum and skin were then sutured, and the animals were returned to their individual cages. […] Two weeks after sham or 5/6 nephrectomy surgery, the animals were subjected to a 24-hour urine collection and non-invasive tail blood pressure measurement every 4 weeks. Four weeks after the surgery, rats underwent 5/6 nephrectomy or shame surgery were randomly assigned into two groups, i.e., the control and the telbivudine groups, in which the control group received saline treatment, and rats in the telbivudine group received telbivudine (10 mg/mL/Kg) treatment for 8 or 12 weeks. Animals were then sacrificed, and kidney and heart biopsy samples were obtained.
Total RNA was extracted from fresh frozen renal and heart tissues using the Trizol Reagent (Life Technologies), according to the manufacturer protocol. Briefly, renal cortex or heart tissue (150 mg) was homogenized with 1 ml Trizol, and RNA-containing aqueous phase was obtained by centrifugation. Following the precipitation of RNA by centrifugation with 0.5 volume isopropanol and purification with 75% ethanol, the extracted total RNA was dissolved in 80 μL nuclease-free deionized distilled water and stored at −20° C. The concentration and purity of RNA were determined by Nanodrop Spectrophotometer (Thermo Scientific). First-strand cDNAs were synthesized from template RNA (1 μg) using Transcriptor First Strand cDNA Synthesis Kit (Roche), according to the manufacturer's protocol. Real-time PCR was performed using 2 μL template in a 20-μL reaction containing 1 μM of each primer and 10 μLLightCyclerFastStartUniversal SYBR Green Master (ROX) (Roche). […]
(§2) 5/6 nephrectomy is a procedure in which one kidney of a test animal is removed and 2/3 of the remaining kidney is ablated, thereby mimics the progressive renal failure after loss of renal mass in humans. […] Blood and urine samples were respectively collected on designated days and analyzed for the levels of blood urine nitrogen (BUN), serum creatine (CR), and hepatic enzymes (i.e., alanine aminotransferase (ALT) and aspartate aminotransferase (AST)). Heart function was determined by monitoring the changes in diastolic parameter—Tissue Velocity Imaging (TVI_V), E/A ratio, and the strain in cardia muscle (C_strain), left ventrical mass (LVMASS). […]

[4] = tested on: IL-6, TGF-β, TIMP1 and COL-1-A1 in kidney tissue of CKD rats; assay: Western blot of inflammatory proteins in kidney tissue of CKD rats; assay type: in vivo, Sprague Dawley rats
Protocol: as §1
For protein identification, 30 μg nuclear extracted protein was loaded in each lane of the SDS-PAGE gel (8%) and separated by electrophoresis. The separated proteins were then electro-transferred to polyvinylidene fluoride (PVDF) membranes (GE Healthcare Bio-Sciences, Little Chalfont, UK), and blocked with 5% fat-free skim milk in TRIS-buffered saline containing 0.01% Tween-20 for 60 min at room temperature. The membrane was then incubated with rabbit polyclonalanti-IL-6, TGF-β, TIMP-1 and COL1-1 (diluted 1:1000 in PBS/5% skim milk; Novus. Biologicals) antibodies overnight at 4, respectively. HRP conjugated anti-rabbit IgG (Promega) was then used as secondary antibody. Immunoreactive protein was visualized by the chemiluminescence protocol (ECL, GE HealthcareBio-Sciences). Anti-actin rabbit polyclonal antibody (1:1000; Sigma-Aldrich) was used for calibration.
as §2, with “humans. Briefly, approximately 50% of the remaining kidney of the rat was removed by polar excision 1-2 weeks after uni-nephrectomy. Then, the animals were randomly assigned to two groups, the telbivudine group and the control group.” for “humans.”

CKD rats [5] = assay: Heart fibrosis in CKD rats; assay type: in vivo, Sprague Dawley rats; conditions: heart tissue of CKD rats, telbivudine-treated vs untreated (FIG. 5)
Protocol: (§3) SD rats (about 10 weeks old) scheduled to undergo 5/6 nephrectomy or sham surgery were anesthetized by Zoletil 50/Xylazine (6 mg/1.3 mg/Kg, i.p.). Then, the left kidney was exposed, and the upper and lower poles were tied with a suture line, followed by right nephrectomy. The peritoneum and skin were then sutured, and the animals were returned to their individual cages. […] Two weeks after sham or 5/6 nephrectomy surgery, the animals were subjected to a 24-hour urine collection and non-invasive tail blood pressure measurement every 4 weeks. […]
as §2

CKD rats [6] = assay: Cardiac muscle strain measurement by heart ultrasound in CKD rats; assay type: in vivo, Sprague Dawley rats; conditions: vs control animals
Protocol: SD rats (about 10 weeks old) scheduled to undergo 5/6 nephrectomy or sham surgery were anesthetized by Zoletil 50/Xylazine (6 mg/1.3 mg/Kg, i.p.). Then, the left kidney was exposed, and the upper and lower poles were tied with a suture line, followed by right nephrectomy. The peritoneum and skin were then sutured, and the animals were returned to their individual cages. For animals underwent sham surgery, the left kidney was exposed in similar manner, but was then placed back into the abdominal cavity without further treatment, peritoneum and skin were then sutured. Two weeks after sham or 5/6 nephrectomy surgery, the animals were subjected to a 24-hour urine collection and non-invasive tail blood pressure measurement every 4 weeks. […] Once the animal became unconscious, it was then connected to heart ultrasound machine (Vivid i, General Electric Company, US) and heart function paraments including changes in diastolic parameter-Tissue Velocity Imaging (TVI_V) and E/A ratio, the strain in cardia muscle (C_strain), and left ventrical mass ([…]) were respectively measured. […] Blood and urine samples were respectively collected on designated days and analyzed for the levels of blood urine nitrogen (BUN), serum creatine (CR), and hepatic enzymes (i.e., alanine aminotransferase (ALT) and aspartate aminotransferase (AST)). […]

[7] = tested on: IL-6 and COL-1-A1 in heart tissue of CKD rats; assay: Quantitative RT-PCR of IL-6 and COL-1-A1 in heart tissue of CKD rats; assay type: in vivo, Sprague Dawley rats
Protocol: as §3
Total RNA was extracted from fresh frozen renal and heart tissues using the Trizol Reagent (Life Technologies), according to the manufacturer protocol. […] The concentration and purity of RNA were determined by Nanodrop Spectrophotometer (Thermo Scientific). […]
as §2, with “(AST)).” for “(AST)). Heart function was determined by monitoring the changes in diastolic parameter—Tissue Velocity Imaging (TVI_V), E/A ratio, and the strain in cardia muscle (C_strain), left ventrical mass (LVMASS).”

[8] = tested on: IL-6 and COL-1-A1 in heart tissue of CKD rats; assay: Western blot of IL-6 and COL-1-A1 in heart tissue of CKD rats; assay type: in vivo, Sprague Dawley rats
Protocol: as §3, §2

CKD rats [9] = assay: Uremic toxins (indoxyl sulfate, P-cresyl sulfate) in serum of CKD rats; assay type: in vivo, Sprague Dawley rats; conditions: serum collected from CKD rats
Protocol: as §1
(§4) 5/6 nephrectomy is a procedure in which one kidney of a test animal is removed and 2/3 of the remaining kidney is ablated, thereby mimics the progressive renal failure after loss of renal mass in humans. Briefly, approximately 50% of the remaining kidney of the rat was removed by polar excision 1-2 weeks after uni-nephrectomy. Then, the animals were randomly assigned to two groups, the telbivudine group and the control group. Rats in the telbivudine group were orally fed with telbivudine (at a dosage of 100 mg/Kg) for 4, 8 or 12 weeks, while the animals in the control group were given just the water. Blood and urine samples were respectively collected on designated days and analyzed for the levels of blood urine nitrogen (BUN), serum creatine (CR), and hepatic enzymes (i.e., alanine aminotransferase (ALT) and aspartate aminotransferase (AST)). Heart function was determined by monitoring the changes in diastolic parameter—Tissue Velocity Imaging (TVI_V), E/A ratio, and the strain in cardia muscle (C_strain), left ventrical mass (LVMASS). Animals were sacrificed after the experiments were finished, and kidney biopsy samples were obtained.
Indoxyl sulfate (IS) and P-cresyl sulfate (PCS) are uremic toxins that accumulate in the serum of CKD patients, and are known factors for causing heart problems in the CKD subjects.

CKD rats [10] = tested on: CKD rats; design: species or system Sprague Dawley rats; conditions: rat, in vivo
From the text: as §4
In this example, the effect of telbivudine on liver function was investigated.

[11] = telbivudine orally 100 mg/Kg for 8 weeks, vs untreated CKD
[12] = telbivudine orally 100 mg/Kg for 12 weeks

## Cc1cn([C@@H]2C[C@@H](O)[C@H](CO)O2)c(=O)[nH]c1=O [telbivudine]
CKD rats [1]; [11]
  level of BUN (blood urine nitrogen): significant reduction
  level of CR (serum creatine): significant reduction
CKD rats [1]; [12]
  level of BUN (blood urine nitrogen): most significant
  level of CR (serum creatine): most significant
CKD rats [2]; telbivudine treatment for 8 weeks (FIG. 2 panel D)
  decrease of extent of kidney fibrosis: about 62.4%
CKD rats [2]; telbivudine treatment for 12 weeks (FIG. 2 panel D)
  decrease of extent of kidney fibrosis: ~79.2%
CKD rats [2]; telbivudine-treated vs untreated (FIG. 2 panel B vs C)
  extent of kidney fibrosis (photographs): significantly reduced
[3]
  mRNA level of COL-1-A1: reduced
  mRNA level of IL-6: reduced
  mRNA level of TGF-β: reduced
  mRNA level of TIMP1: reduced
[4]
  protein level of COL-1-A1: reduced
  protein level of IL-6: reduced
  protein level of TGF-β: reduced
  protein level of TIMP1: reduced
CKD rats [5]
  extent of fibrotic tissues in heart: markedly reduced
CKD rats [6]; CKD animals treated with telbivudine for 8 weeks
  C-strain values (strain in cardia muscle): significant improvement
CKD rats [6]; CKD animals treated with telbivudine for 12 weeks
  C-strain values (strain in cardia muscle): significant improvement
[7]
  mRNA level of COL-1-A1: markedly reduced
  mRNA level of IL-6: markedly reduced
[8]
  protein level of COL-1-A1: markedly reduced
  protein level of IL-6: markedly reduced
CKD rats [9]
  free level of Indoxyl sulfate (IS): effectively reduced
  free level of P-cresyl sulfate (PCS): effectively reduced
  total level of Indoxyl sulfate (IS): effectively reduced
  total level of P-cresyl sulfate (PCS): effectively reduced
CKD rats [10]
  level of alanine aminotransferase (ALT): remained relatively the same
  level of aspartate aminotransferase (AST): remained relatively the same
  toxic effects toward liver function: does not possess any toxic effects
